{"source": "patent US11666640B2", "about": "“Glucose oxidase compositions as a neonate anticonvulsant” (PENN STATE RESEARCH FOUNDATION, priority 2018, dated 2023)", "key": {"CLC-3 Cl− channels": {"molecular_target": "T1, CLC-3 Cl− channels (Mus musculus, UniProt P51791)", "T1 construct": "CA3 pyramidal neurons of hippocampal slices from neonatal mice; from tissue; host or cells: acute hippocampal slices (CA3 pyramidal neurons), C57BL/6 mice", "T1 sequence (P51791 1-818)": "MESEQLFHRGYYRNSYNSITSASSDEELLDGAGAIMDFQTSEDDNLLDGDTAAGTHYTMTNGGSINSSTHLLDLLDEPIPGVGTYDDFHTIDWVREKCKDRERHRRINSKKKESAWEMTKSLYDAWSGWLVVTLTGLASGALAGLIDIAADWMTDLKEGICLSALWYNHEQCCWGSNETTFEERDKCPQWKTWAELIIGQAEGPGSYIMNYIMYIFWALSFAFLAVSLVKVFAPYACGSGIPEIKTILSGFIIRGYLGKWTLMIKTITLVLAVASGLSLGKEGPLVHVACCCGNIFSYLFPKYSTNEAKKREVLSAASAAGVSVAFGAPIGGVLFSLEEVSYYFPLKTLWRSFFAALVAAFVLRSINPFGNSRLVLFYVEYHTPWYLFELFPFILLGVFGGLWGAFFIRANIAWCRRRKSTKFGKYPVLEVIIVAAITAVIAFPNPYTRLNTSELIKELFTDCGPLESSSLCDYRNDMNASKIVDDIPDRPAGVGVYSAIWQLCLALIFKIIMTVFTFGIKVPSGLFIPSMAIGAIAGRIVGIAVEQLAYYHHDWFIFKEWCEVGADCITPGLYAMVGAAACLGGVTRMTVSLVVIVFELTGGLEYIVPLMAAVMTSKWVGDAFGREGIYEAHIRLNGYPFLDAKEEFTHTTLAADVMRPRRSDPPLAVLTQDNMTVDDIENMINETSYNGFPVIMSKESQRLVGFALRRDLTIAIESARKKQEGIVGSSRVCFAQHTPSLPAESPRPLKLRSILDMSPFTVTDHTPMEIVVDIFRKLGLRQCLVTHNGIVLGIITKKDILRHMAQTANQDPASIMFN", "experiment": "Voltage-dependent outward rectifying Cl− currents in CA3 pyramidal neurons of hippocampal slices", "assay_type": "cell-based"}, "[1]": {"system": "KA induced neonatal seizure", "experiment": "KA-induced neonatal seizure, in vivo EEG recording", "parameters": "species or system rat", "protocol": "For example, neonatal rats were administered gluconate to determine the effect on in vivo epileptic seizures in neonatal and adult animals. […] FIGS. 14A and 14B; Dzhala et al., “NKCC1 transporter facilitates seizures in the developing brain” Nature Medicine 11:1205-1213 (2005). […] FIGS. 14C and 14D.\n(§1) To test the in vivo anti-epilepsy effects of gluconate in neonatal and adult rodents, P8-12 Sprague-Dawley rats or 2-month old male C57BL/6 mice were deeply anesthetized with pentobarbital sodium (50 mg/kg for neonatal rat and 100 mg/kg for adult mice, intraperitoneal injection). Two stainless steel screws (1 mm in diameter) were inserted in the skull above the cortex as EEG recording electrodes, one ground electrode as well as one reference electrode were located +1.8 mm anterior to bregma, ±0.5 mm lateral to the midline, and 1 mm below the cortical surface. All electrodes were attached to a micro-connector and fixed onto the skull with dental cement. After surgery, neonatal rats were returned to their mothers and allowed to recover for 2 days prior to subsequent EEG recording. The adult mice were single housed in order to prevent damage of the implanted electrodes and allowed to recover at least 5 days before EEG recording.\nThe baseline of EEG was recorded for 0.5-1 hr to allow the animal to adapt to the environment. Kainic acid (2 mg/kg) was administered intraperitoneally (i.p.) for neonatal epilepsy induction. D-gluconic acid sodium salt (2 g/kg) or 0.9% saline was injected i.p. 10 min after KA administration. Pentylenetetrazol (PTZ) was administered intraperitoneally for inducing a stable epileptic burst activity in adult mice, and D-gluconic acid sodium salt (1 g/kg and 2 g/kg) or 0.9% saline was injected i.p. 10 min before PTZ administration. Epileptiform activity was monitored for 1 hr after PTZ injection. Qian et al., “Epileptiform response of CA1 neurones to convulsant stimulation by cyclothiazide, kainic acid and pentylenetetrazol in anaesthetized rats” Seizure 20:312-319 (2011). After the experiment, animals were injected with diazepam to protect the animals from recurrent epilepsy.\nPower was calculated in 1-min time windows by integrating the power of dominant frequency bands from 1 to 100 Hz (EEG band)."}, "[2]": {"system": "PTZ-induced epileptic seizures", "experiment": "PTZ-induced epileptiform activity in adult mice, EEG recording", "assay_type": "in vivo, mouse", "conditions": "PTZ 50 mg/kg i.p.", "protocol": "as §1\nThe baseline of EEG was recorded for 0.5-1 hr to allow the animal to adapt to the environment. Kainic acid (2 mg/kg) was administered intraperitoneally (i.p.) for neonatal epilepsy induction. D-gluconic acid sodium salt (2 g/kg) or 0.9% saline was injected i.p. 10 min after KA administration. […] Epileptiform activity was monitored for 1 hr after PTZ injection. […]\nAdult EEG signal were analyzed by spike 2 software (an analysis program for CED 1401, Cambridge, UK). […]"}, "[3]": {"system": "PTZ-induced seizure behavior", "experiment": "Seizure behavior test (Racine score) after PTZ", "assay_type": "in vivo, mouse", "conditions": "PTZ 50 mg/kg i.p., adult mice", "protocol": "Male mice were divided into three groups: vehicle control group (saline, n=9), D-gluconic acid sodium at 1 g/kg group (n=10), and D-gluconic acid sodium at 2 g/kg group (n=11). PTZ (50 mg/kg) was intraperitoneally administered 1 hr after drug treatment. After PTZ injection, the behavior was monitored and observed for 1 hr. The seizure behavior was classified according to Racine Score: stage 0, no response; stage 1, facial twitching; stage 2, nod; stage 3, forelimb clonic, tail upright; stage 4, stand with forelimbs clonic; stage 5, stand and fall, jump, general clonic seizure, general clonic and tonic seizure or death. Racine et al., “Modification of seizure activity by electrical stimulation. 3. Mechanisms” Electroencephalogr Clin Neurophysiol 32:295-299 (1972)."}}, "note": "“Also recorded” adds a separate entry of the source."}
{"smiles": "O=C([O-])[C@H](O)[C@@H](O)[C@H](O)[C@H](O)CO.[Na+]", "note": "[NaGcA, D-gluconic acid sodium salt]", "values": [{"measurement": "Cl− currents after 0 Mg2+ treatment (inhibition)", "setting": "CLC-3 Cl− channels; 0 Mg2+ aCSF 1 hr, 20 mM NaGcA, sodium salt", "result": "remarkable inhibition; also recorded: significantly inhibited; also recorded: significantly blocked; also recorded: remarkably inhibited"}, {"measurement": "Cl− current density after 0 Mg2+ treatment", "setting": "CLC-3 Cl− channels; 0 Mg2+ aCSF 1 hr, recorded in 20 mM NaGcA, +90 mV", "result": "7.3±0.6", "unit": "pA/pF"}, {"measurement": "Cl− currents in neonatal CA3 pyramidal neurons", "setting": "CLC-3 Cl− channels; 20 mM NaGcA, neonatal, sodium salt", "result": "dramatically reduced; also recorded: potent inhibitor; also recorded: remarkably inhibited"}, {"measurement": "Cl− currents in CLC-3 KO mice", "setting": "CLC-3 Cl− channels; CLC-3 KO mice, NaGcA, sodium salt", "result": "little inhibition; also recorded: no effect"}, {"measurement": "Cl− current inhibition by gluconic acid with various counter ions", "setting": "CLC-3 Cl− channels; P8-12 neonatal mice, 20 mM NaGcA, 10 mM Mg(GcA)2, 20 mM gluconic acid", "result": "equivalent Cl− current inhibition"}, {"measurement": "Cl− currents in adult brains", "setting": "CLC-3 Cl− channels; adult (P60-62), 20 mM NaGcA", "result": "no effect"}, {"measurement": "epileptic seizure (burst) activity in EEG", "setting": "[1]; P10-12, KA 2 mg/kg i.p., drug i.p. 10 min after KA: NaGcA 2 g/kg, phenobarbital 25 mg/kg, bumetanide 2 mg/kg, sodium salt", "result": "significantly inhibited; also recorded: potently inhibited; also recorded: essentially abolished; also recorded: no robust burst discharges"}, {"measurement": "average power of epileptic activity induced by KA, lowering", "setting": "[1]; P10-12, NaGcA 2 g/kg i.p. vs saline, 1 min time window", "result": 70, "unit": "%"}, {"measurement": "reduction of relative EEG power", "setting": "[1]; last 30 min of a 2-hr recording period after KA injection, neonatal", "result": 72.3, "unit": "%"}, {"measurement": "epileptic burst activity induced by PTZ", "setting": "[2]", "result": "did not suppress the epileptic burst activity as effective"}, {"measurement": "latency of epileptiform spikes or bursts induced by PTZ", "setting": "[2]; NaGcA 1 and 2 g/kg, sodium salt", "result": "prolonging the latency; also recorded: prolonged"}, {"measurement": "behavioral seizure score", "setting": "[3]", "result": "mild inhibitory effect"}, {"measurement": "latency of seizure behavior (Racine score 3 and above)", "setting": "[3]", "result": "dose-dependently prolonged"}]}
